From BindingDB's records for doi:10.1016/j.bmcl.2004.01.013 (University of Arizona, 2004)

Molecular target: Ceramide glucosyltransferase (Canis familiaris)
Assay: Inhibitory concentration against glucosylceramide synthase in MDCK cell line

Row | SMILES | IC50 [nM]
1 | CCCCCCCCCCCCCCCC(=O)NC(CN1CCCC1)C(O)c1ccc(O)cc1 (configuration not stated) [Hexadecanoic acid [2-hydroxy-2-(4-hydroxy-phenyl)-1-pyrrolidin-1-ylmethyl-ethyl]-amide] | 90
2 | CCCCCCCCCCCCCCCC(=O)NC(CN1CCCC1)C(O)c1ccc2c(c1)OCCO2 (configuration not stated) [Hexadecanoic acid [2-(2,3-dihydro-benzo[1,4]dioxin-6-yl)-2-hydroxy-1-pyrrolidin-1-ylmethyl-ethyl]-amide] | 90
